Results published in US6043231A, “Inhibition of excessive phospholipase A2 activity and/or production by non-antimicrobial tetracyclines” (The Research Foundation of State Univ. of New York, priority 1993, dated 2000).

Tests used:
Format in all cases: biochemical
[1] = target: T1, porcine pancreatic PLA2 (Sus scrofa, UniProt P00592); test: PLA2 inhibition, E. coli assay, porcine pancreatic PLA2
T1 construct: labelled E. coli membrane substrate
Description: (§1) Six different chemically-modified tetracyclines, including CMT-1 (4-dedimethylaminotetracycline), CMT-2 (tetracyclinonitrile), CMT-3 (6-demethyl-6-deoxy-4-de-dimethylaminotetracycline), CMT-4 (4-de-dimethylamino-7-chloro-tetracycline), CMT-5 (pyrazole analog) and CMT-6 (4-hydroxy-4-dedimethylaminotetracycline), were examined for their ability to inhibit PLA2 activity in vitro. The sources of PLA2 that were tested included recombinant human PLA2, human pancreatic and porcine pancreatic PLA2 and Naja naja PLA2. […] Various concentrations of CMTs, ranging from 5-100 μg/ml, were preincubated with the different PLA2 enzymes for 30 minutes and the mixture was tested for PLA2 activity using a known E. coli assay method (see Arthritis and Rheumatism, 34 Supp. 9: p. S160 (abst C167)).
(§2) A chemically-modified tetracycline, 4-dedimethyl-amino-7-dimethylaminotetracycline (CMT-10), was examined for its ability to inhibit PLA2 activity in vitro. The sources of PLA2 that were tested included were recombinant human PLA2 (snpPLA2), human pancreatic and porcine pancreatic PLA2 and Naja naja PLA2. […] Various concentrations of CMT-10, ranging from 5-100 μg/ml, were preincubated with the different PLA2 enzymes for 30 minutes and the mixture was tested for PLA2 activity using a known E. coli assay method (see Arthritis and Rheumatism, 34 Supp. 9: p. S160 (abst C167)).
(§3) In particular, [^14 C]Oleic acid-labelled Escherichia coli (strain K12 C600) were used as the substrate. This substrate has been characterized with respect to phospholipid composition and distribution of radiolabel. Reaction mixtures contained 10 mg bovine serum albumin, 2 mM CaCl2, 2.8×10^8 radiolabelled E. coli and 0.1 M Tris-HCl buffer, pH 7.5 in a total volume of 1.5 ml. Reaction mixtures were incubated at 37° C. for 30 min. The reaction was terminated by filtration through a 0.45 μm Millipore filter, thereby retaining unhydrolysed E. coli membranes, and allowing the [^14 C]oleic acid bound to the BSA carrier, released as a result of PLA2 hydrolysis, to pass through the filter. Assays were performed in duplicate and values shown represent the mean of two determinations with a SD<5% of the mean. Assays were performed in substrate excess and enzyme activities were corrected for non-enzymatichydrolysis. One unit of PLA2 activity is defined as the hydrolysis of 56 pmol of phospholipid substrate (representing 1% of total E. coli phospholipid) in 30 min at 37° C.

[2] = target: T2, human pancreatic PLA2 (Homo sapiens, UniProt P04054); test: PLA2 inhibition, E. coli assay, human pancreatic PLA2
T2 construct: labelled E. coli membrane substrate
Description: as §1, §2, §3

[3] = target: T3, recombinant human PLA2 (snpPLA2) (Homo sapiens, UniProt P14555); test: PLA2 inhibition, radiolabelled E. coli assay, recombinant human PLA2
T3 sequence (P14555 21-144): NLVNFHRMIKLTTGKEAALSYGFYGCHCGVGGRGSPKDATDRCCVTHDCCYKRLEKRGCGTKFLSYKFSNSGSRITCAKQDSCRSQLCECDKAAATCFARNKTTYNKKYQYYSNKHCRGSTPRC
Description: as §1, §2, §3

[4] = concentrations of 25 μg/ml or greater
[5] = recombinant human PLA2, 30 min preincubation

T1 sequence (P00592 23-146): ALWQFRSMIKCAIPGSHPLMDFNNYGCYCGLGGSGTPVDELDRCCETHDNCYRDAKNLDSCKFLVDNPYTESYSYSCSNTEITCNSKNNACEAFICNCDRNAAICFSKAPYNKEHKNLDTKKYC
T2 sequence (P04054 23-148): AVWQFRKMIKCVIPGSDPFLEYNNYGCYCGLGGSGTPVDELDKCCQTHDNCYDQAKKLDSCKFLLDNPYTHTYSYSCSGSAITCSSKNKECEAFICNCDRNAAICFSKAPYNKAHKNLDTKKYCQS

Row | Compound | inhibition of porcine pancreatic PLA2 [1] | inhibition of human pancreatic PLA2 [2] | PLA2-inhibitory activity [3, 4] | IC50 (concentration of the drug required to inhibit 50% of PLA2) [3, 5] [µg/mL] | PLA2-inhibitory activity ([3]; highest concentrations tested (range 5-100 μg/ml)) | IC50 ([3]; recombinant human PLA2, 30 min preincubation, read-out: IC50 (concentration of the drug required to inhibit 50% of PLA2) (converted)) [µM] | % inhibition ([2]; 30 μg/ml, human pancreatic PLA2) [%]
1 | CC1(O)c2cccc(O)c2C(=O)C2=C(O)C3(O)C(=O)C(C(N)=O)=C(O)CC3CC21 (stereo not drawn) [CMT-1, 4-dedimethylaminotetracycline] | found to inhibit | found to inhibit | exhibited significant PLA2 -inhibitory activity | 37 | – | – | –
2 | CN(C)C1C(=O)C(C#N)=C(O)C2(O)C(=O)C3=C(O)c4c(O)cccc4C(C)(O)C3CC12 (stereo not drawn) [CMT-2, tetracyclinonitrile] | – | – | – | – | lacked any PLA2 -inhibitory activity | – | –
3 | NC(=O)C1=C(O)C2(O)C(=O)C3=C(O)c4c(O)cccc4CC3CC2CC1=O (stereo not drawn) [CMT-3, 6-demethyl-6-deoxy-4-de-dimethylaminotetracycline] | found to inhibit | found to inhibit | exhibited significant PLA2 -inhibitory activity | – | – | 75.4 | –
4 | CC1(O)c2c(Cl)ccc(O)c2C(=O)C2=C(O)C3(O)C(=O)C(C(N)=O)=C(O)CC3CC21 (stereo not drawn) [CMT-4, 4-de-dimethylamino-7-chloro-tetracycline] | found to inhibit | found to inhibit | exhibited significant PLA2 -inhibitory activity | 42 | – | – | –
5 | CC1(O)c2cccc(O)c2C(=O)C2=C(O)C3(O)C(=O)C(C(N)=O)=C(O)C(O)C3CC21 (stereo not drawn) [CMT-6, 4-hydroxy-4-dedimethylaminotetracycline] | found to inhibit | found to inhibit | exhibited significant PLA2 -inhibitory activity | 17 | – | – | –
6 | CN(C)c1ccc(O)c2c1C(C)(O)C1CC3CC(O)=C(C(N)=O)C(=O)C3(O)C(O)=C1C2=O (stereo not drawn) [CMT-10, 4-dedimethylamino-7-dimethylaminotetracycline] | – | found to inhibit | exhibited significant PLA2 -inhibitory activity | 30 | – | – | 66
